The source made the active and inactive calls. The calls are words filed in the database; no cut-off is given here.

Type in all cases: functional
Test [1] deals with Pseudomonas aeruginosa. Nature of the test: Antibacterial activity against Pseudomonas aeruginosa MTCC 2453 at 100 ug/ml by cup-plate method. The note with it: for zone of inhibition at 100 µg/mL: read-out: DIZ.
Test [2] has as its system Bacillus subtilis. Nature of the test: Antibacterial activity against Bacillus subtilis MTCC 121 at 100 ug/ml by cup plate method. The note with it: read-out: DIZ.
Test [3] deals with Candida albicans. Nature of the test: Antifungal activity against Candida albicans MTCC 227 at 100 ug/ml by cup-plate method. The note with it: for zone of inhibition at 100 µg/mL: read-out: DIZ.
The subject of test [4] is Escherichia coli. Kind of test: Antibacterial activity against Escherichia coli MTCC 739 at 100 ug/ml by cup-plate method. The note with it: for zone of inhibition at 100 µg/mL: read-out: DIZ.
For test [5], the system named is Staphylococcus aureus. Kind of test: Antibacterial activity against Staphylococcus aureus MTCC 96 at 100 ug/ml by cup-plate method. The note with it: read-out: DIZ.
For test [6], the system named is Pseudomonas aeruginosa. Kind of test: Antibacterial activity against Pseudomonas aeruginosa MTCC 2453 at 200 ug/ml by cup-plate method. The note with it: for zone of inhibition at 200 µg/mL: read-out: DIZ.
Test [7] has as its system Bacillus subtilis. Nature of the test: Antibacterial activity against Bacillus subtilis MTCC 121 at 300 ug/ml by cup plate method. The note with it: read-out: DIZ.
Test [8] has as its system Bacillus subtilis. Nature of the test: Antibacterial activity against Bacillus subtilis MTCC 121 at 200 ug/ml by cup plate method. The note with it: read-out: DIZ.
The test system of test [9] is Escherichia coli. Nature of the test: Antibacterial activity against Escherichia coli MTCC 739 at 200 ug/ml by cup-plate method. The note with it: for zone of inhibition at 200 µg/mL: read-out: DIZ.
The subject of test [10] is Escherichia coli. Nature of the test: Antibacterial activity against Escherichia coli MTCC 739 at 50 ug/ml by cup-plate method. The note with it: for zone of inhibition at 50 µg/mL: read-out: DIZ.
For test [11], the system named is Escherichia coli. Nature of the test: Antibacterial activity against Escherichia coli MTCC 739 at 300 ug/ml by cup-plate method. The note with it: for zone of inhibition at 300 µg/mL: read-out: DIZ.
Test [12] has as its system Staphylococcus aureus. Kind of test: Antibacterial activity against Staphylococcus aureus MTCC 96 at 50 ug/ml by cup-plate method. The note with it: read-out: DIZ.
Test [13] concerns Staphylococcus aureus. Kind of test: Antibacterial activity against Staphylococcus aureus MTCC 96 at 200 ug/ml by cup-plate method. The note with it: read-out: DIZ.
In test [14] the test system is Bacillus subtilis. Kind of test: Antibacterial activity against Bacillus subtilis MTCC 121 at 50 ug/ml by cup plate method. The note with it: read-out: DIZ.
Test [15] relates to Candida albicans. Kind of test: Antifungal activity against Candida albicans MTCC 227 at 200 ug/ml by cup-plate method. The note with it: for zone of inhibition at 200 µg/mL: read-out: DIZ.
In test [16] the test system is Candida albicans. Nature of the test: Antifungal activity against Candida albicans MTCC 227 at 50 ug/ml by cup-plate method. The note with it: for zone of inhibition at 50 µg/mL: read-out: DIZ.
Test [17] has as its system Pseudomonas aeruginosa. Nature of the test: Antibacterial activity against Pseudomonas aeruginosa MTCC 2453 at 300 ug/ml by cup-plate method. The note with it: for zone of inhibition at 300 µg/mL: read-out: DIZ.
Test [18] has as its system Candida albicans. Kind of test: Antifungal activity against Candida albicans MTCC 227 at 300 ug/ml by cup-plate method. The note with it: for zone of inhibition at 300 µg/mL: read-out: DIZ.
For test [19], the system named is Staphylococcus aureus. Kind of test: Antibacterial activity against Staphylococcus aureus MTCC 96 at 300 ug/ml by cup-plate method. The note with it: read-out: DIZ.
For test [20], the system named is Pseudomonas aeruginosa. Kind of test: Antibacterial activity against Pseudomonas aeruginosa MTCC 2453 at 50 ug/ml by cup-plate method. The note with it: for zone of inhibition at 50 µg/mL: read-out: DIZ.

Take `O=C(O)c1cn(C2CC2)c2cc(N3CCNCC3)c(F)cc2c1=O` [CIPROFLOXACIN]: the zone of inhibition at 100 µg/mL in the test on Pseudomonas aeruginosa [1] was found to be 18 mm; in the test on Bacillus subtilis [2], 22 mm; in the test with Escherichia coli [4] it was 28 mm; in the test on Staphylococcus aureus [5], 19 mm. Also, in the test with Candida albicans [3], the “diameter of the inhibition zone (DIZ)” value is “inactive”.

As to `O=C1N/C(=N\c2ccc([N+](=O)[O-])cc2)S/C1=C\c1ccccc1[N+](=O)[O-]`, the zone of inhibition at 100 µg/mL with Pseudomonas aeruginosa [1] is 11 mm; in the test with Bacillus subtilis [2], 12 mm; in the test on Escherichia coli [4], 11 mm; with Staphylococcus aureus [5] it was 15 mm. Besides, the zone of inhibition at 200 µg/mL is 12 mm in the test with Pseudomonas aeruginosa [6], 13 mm in the test on Bacillus subtilis [8], 12 mm in the test with Escherichia coli [9] and 16 mm with Staphylococcus aureus [13]. Besides, the zone of inhibition at 300 µg/mL was 15 mm in the test on Bacillus subtilis [7], 12 mm with Escherichia coli [11], 12 mm in the test with Pseudomonas aeruginosa [17] and 17 mm with Staphylococcus aureus [19]. Also, the zone of inhibition at 50 µg/mL in the test with Escherichia coli [10] was determined as 11 mm; with Staphylococcus aureus [12], 11 mm; with Bacillus subtilis [14] it was 11 mm; in the test on Pseudomonas aeruginosa [20], 10 mm. Also, the “diameter of the inhibition zone (DIZ)” value in the test on Candida albicans [15], in the test on Candida albicans [16], in the test on Candida albicans [18] and with Candida albicans [3] was “inactive” throughout.

For `O=C1N/C(=N\c2ccc([N+](=O)[O-])cc2)S/C1=C\c1cccc([N+](=O)[O-])c1`, the zone of inhibition at 100 µg/mL in the test on Pseudomonas aeruginosa [1] turned out to be 11 mm; in the test on Bacillus subtilis [2], 12 mm; in the test on Escherichia coli [4], 11 mm; in the test with Staphylococcus aureus [5], 15 mm. Also, the zone of inhibition at 200 µg/mL in the test with Pseudomonas aeruginosa [6] was 12 mm; with Bacillus subtilis [8] it was 13 mm; in the test on Escherichia coli [9] it was 12 mm; in the test with Staphylococcus aureus [13], 16 mm. Besides, the zone of inhibition at 300 µg/mL in the test on Bacillus subtilis [7] worked out at 15 mm; in the test with Escherichia coli [11] it was 12 mm; in the test on Pseudomonas aeruginosa [17] it was 12 mm; in the test on Staphylococcus aureus [19], 17 mm. The zone of inhibition at 50 µg/mL in the test on Escherichia coli [10] was determined as 11 mm; in the test on Staphylococcus aureus [12] it was 11 mm; in the test with Bacillus subtilis [14] it was 11 mm; with Pseudomonas aeruginosa [20], 10 mm. Besides, the “diameter of the inhibition zone (DIZ)” value in the test with Candida albicans [15], in the test on Candida albicans [16], in the test on Candida albicans [18] and in the test with Candida albicans [3] was “inactive” in each case.

As for `O=C1N/C(=N\c2ccccc2[N+](=O)[O-])S/C1=C\c1ccccc1Cl`, the zone of inhibition at 100 µg/mL in the test on Pseudomonas aeruginosa [1] was found to be 10 mm; with Bacillus subtilis [2], 13 mm; with Candida albicans [3], 16 mm; in the test on Escherichia coli [4], 10 mm; with Staphylococcus aureus [5], 12 mm. Moreover, the zone of inhibition at 200 µg/mL in the test with Pseudomonas aeruginosa [6] worked out at 12 mm; with Bacillus subtilis [8], 15 mm; in the test with Escherichia coli [9], 10 mm; in the test on Staphylococcus aureus [13] it was 14 mm; in the test on Candida albicans [15], 18 mm. In addition, the zone of inhibition at 300 µg/mL in the test with Bacillus subtilis [7] turned out to be 18 mm; in the test with Escherichia coli [11] it was 12 mm; in the test with Pseudomonas aeruginosa [17], 15 mm; with Candida albicans [18] it was 19 mm; with Staphylococcus aureus [19], 15 mm. For the same compound, the zone of inhibition at 50 µg/mL in the test on Escherichia coli [10] was 9 mm; in the test on Staphylococcus aureus [12], 11 mm; in the test on Bacillus subtilis [14], 11 mm; in the test with Candida albicans [16] it was 10 mm; in the test with Pseudomonas aeruginosa [20] it was 8 mm.

For the compound `COc1cc(/C=C2\S/C(=N/c3ccccc3[N+](=O)[O-])NC2=O)ccc1O`, the “diameter of the inhibition zone (DIZ)” value in the test on Pseudomonas aeruginosa [1], with Pseudomonas aeruginosa [6], in the test on Escherichia coli [9], with Escherichia coli [10], with Escherichia coli [11] and in the test on Candida albicans [15] was “inactive” throughout. The “diameter of the inhibition zone (DIZ)” value in the test with Candida albicans [16], with Pseudomonas aeruginosa [17], in the test with Candida albicans [18], with Candida albicans [3], in the test with Pseudomonas aeruginosa [20] and in the test with Escherichia coli [4] was “inactive” in each case. Further, the zone of inhibition at 300 µg/mL came out at 12 mm with Bacillus subtilis [7] and 8 mm in the test with Staphylococcus aureus [19]. The zone of inhibition at 200 µg/mL came to 10 mm in the test on Bacillus subtilis [8] and 8 mm in the test with Staphylococcus aureus [13]. The zone of inhibition at 100 µg/mL in the test on Bacillus subtilis [2] and in the test with Staphylococcus aureus [5] was 8 mm in each case. The zone of inhibition at 50 µg/mL in the test with Staphylococcus aureus [12] is 7 mm; in the test with Bacillus subtilis [14], 8 mm.

Regarding `O=C1N/C(=N\c2ccccc2[N+](=O)[O-])S/C1=C\c1ccc(Cl)cc1`, the zone of inhibition at 100 µg/mL in the test with Pseudomonas aeruginosa [1] was determined as 15 mm; in the test with Bacillus subtilis [2] it was 14 mm; with Escherichia coli [4], 11 mm; in the test with Staphylococcus aureus [5], 15 mm. Further, the zone of inhibition at 200 µg/mL with Pseudomonas aeruginosa [6] turned out to be 17 mm; in the test with Bacillus subtilis [8] it was 15 mm; in the test with Escherichia coli [9], 11 mm; with Staphylococcus aureus [13] it was 16 mm. Further, the zone of inhibition at 300 µg/mL with Bacillus subtilis [7] stood at 16 mm; in the test on Escherichia coli [11] it was 11 mm; with Pseudomonas aeruginosa [17] it was 18 mm; with Staphylococcus aureus [19] it was 18 mm. For the same compound, the zone of inhibition at 50 µg/mL in the test with Escherichia coli [10] was 10 mm; in the test with Staphylococcus aureus [12], 14 mm; with Bacillus subtilis [14], 13 mm; in the test with Pseudomonas aeruginosa [20] it was 14 mm. Further, the “diameter of the inhibition zone (DIZ)” value with Candida albicans [15], in the test on Candida albicans [16], in the test on Candida albicans [18] and with Candida albicans [3] was “inactive” throughout.

On to `O=C1N/C(=N\c2ccc([N+](=O)[O-])cc2)S/C1=C\c1ccccc1`, for which the zone of inhibition at 100 µg/mL in the test on Pseudomonas aeruginosa [1] is 10 mm; in the test with Bacillus subtilis [2], 12 mm; in the test on Escherichia coli [4], 12 mm; in the test with Staphylococcus aureus [5], 13 mm. Further, the zone of inhibition at 200 µg/mL in the test with Pseudomonas aeruginosa [6] came to 11 mm; in the test on Bacillus subtilis [8] it was 13 mm; in the test with Escherichia coli [9], 13 mm; with Staphylococcus aureus [13], 14 mm. The zone of inhibition at 300 µg/mL with Bacillus subtilis [7] worked out at 15 mm; in the test with Escherichia coli [11], 15 mm; with Pseudomonas aeruginosa [17], 13 mm; in the test with Staphylococcus aureus [19], 16 mm. In addition, the zone of inhibition at 50 µg/mL with Escherichia coli [10] worked out at 11 mm; with Staphylococcus aureus [12], 12 mm; with Bacillus subtilis [14] it was 11 mm; in the test on Pseudomonas aeruginosa [20] it was 10 mm. The “diameter of the inhibition zone (DIZ)” value in the test with Candida albicans [15], in the test with Candida albicans [16], in the test on Candida albicans [18] and in the test on Candida albicans [3] was “inactive” throughout.

With `O=C1N/C(=N\c2ccccc2[N+](=O)[O-])S/C1=C\c1ccccc1[N+](=O)[O-]`, the zone of inhibition at 100 µg/mL with Pseudomonas aeruginosa [1] turned out to be 10 mm; in the test with Bacillus subtilis [2], 9 mm; in the test on Candida albicans [3] it was 16 mm; in the test on Escherichia coli [4], 8 mm; with Staphylococcus aureus [5], 10 mm. In addition, the zone of inhibition at 200 µg/mL is 13 mm in the test with Pseudomonas aeruginosa [6]; 10 mm in the test with Bacillus subtilis [8]; 10 mm in the test with Escherichia coli [9]; 13 mm in the test with Staphylococcus aureus [13]; 23 mm in the test with Candida albicans [15]. Besides, the zone of inhibition at 300 µg/mL came out at 10 mm in the test with Bacillus subtilis [7]; 11 mm with Escherichia coli [11]; 13 mm with Pseudomonas aeruginosa [17]; 26 mm in the test on Candida albicans [18]; 14 mm with Staphylococcus aureus [19]. Besides, the zone of inhibition at 50 µg/mL worked out at 8 mm with Escherichia coli [10]; 10 mm in the test on Staphylococcus aureus [12]; 9 mm in the test on Bacillus subtilis [14]; 10 mm in the test with Candida albicans [16]; 10 mm in the test with Pseudomonas aeruginosa [20].

For the compound `OC(Cn1cncn1)(Cn1cncn1)c1ccc(F)cc1F` [FLUCONAZOLE], the zone of inhibition at 100 µg/mL in the test on Candida albicans [3] came out at 35 mm.

These data come from ChEMBL document CHEMBL3044740, “Syntheses and evaluation of 2,5-disubstituted 4-thiazolidinone analogues as antimicrobial agents” (2012).
